Experimental data reported in a melting point compilation (Tetko et al.; mined from patent text by program, amines drawn as free bases though some values may be those of a salt).

First: CCSc1nc(-c2ccccc2)cc2nnc(C)n12
Second: Cc1c(-c2ccccc2)[nH]c2ccc(Cl)cc2c1=O
The melting point of the first is lower: 210 to 212 °C for the first, 296 to 302 °C for the second.

First: CC(=O)NC[C@H]1CN(c2ccc(C3CCN(C(=O)CO)CC3)c(F)c2)C(=O)O1
Second: CCC(C#N)=C1CCN(c2ccc(N3C[C@H](CNC(C)=O)OC3=O)cc2F)CC1
The melting point of the first is lower: 182 to 183 °C for the first, 185 to 186 °C for the second.

First: O=C1C(=C2CC=Cc3ccccc32)CCCC1=C1CC=Cc2ccccc21
Second: COc1cc2c(c3c1OC(C)(C)C3)C(c1ccccc1)=NC(CN1C(=O)c3ccccc3C1=O)C2 (configuration not stated)
The melting point of the first is lower: 212 to 213 °C for the first, 228 to 229 °C for the second.

Compared with `CC1(C)OC(=O)C(Oc2ncnc3ccccc23)=C1c1ccc(S(C)(=O)=O)cc1`, `COc1cc(OC)c2c(=O)[nH]c(-c3cccc(-c4ccc(S(C)=O)cc4)n3)nc2c1` (configuration not stated) is higher in melting point: 174 to 177 °C for the first, 281 to 282 °C for the second.

Compared with `O=S(=O)(c1ccc(Cl)cc1)C(C/C=C\CO)c1cc(F)ccc1F` (configuration not stated), `O=C(NCc1ccc(Cl)cc1)c1noc2ccc(I)cc2c1=O` is higher in melting point: 60 to 63 °C for the first, 188 to 190 °C for the second.

First: CC1(Cl)CSC2C(NC(=O)Cc3ccccc3)C(=O)N2C1C(=O)OCc1ccc([N+](=O)[O-])cc1 (configuration not stated)
Second: CC(=O)NC(Cc1cccc(C(=O)OC(C)(C)C)c1)C(=O)OCc1ccccc1 (configuration not stated)
The melting point of the first is lower: 134 to 136 °C for the first, 164 to 166 °C for the second.

First: CC(C)c1nn(-c2nc3ccccc3s2)c(-c2ccc(F)cc2)c1Br
Second: CC(C)(C)OC(=O)c1nn(-c2ccc(Cl)cc2Cl)c(-c2ccc(Cl)cc2)c1CBr
The melting point of the first is higher: 146 to 147 °C for the first, 139 °C for the second.

First: N#CCCNC(=O)c1cccc(-c2cccc3cc(Cc4cccc(C(F)(F)F)c4)sc23)c1
Second: CCCNC(=O)C(C)Cc1ccc2cccc(Cc3ccc(C(=O)NS(=O)(=O)c4ccccc4C)cc3OC)c2c1 (configuration not stated)
The melting point of the first is lower: 95 to 98 °C for the first, 210 to 212 °C for the second.

First: CCOC(=O)c1c(CS(=O)c2nccn2C)nc2cc(OC)c(OC)cc2c1-c1ccc(OC)c(OC)c1 (configuration not stated)
Second: COc1cc2cc(CO)c(CO)c(-c3ccnc(-n4c(=O)ccc5ccccc54)c3)c2cc1OC
The melting point of the first is lower: 193 to 194 °C for the first, over 230 °C for the second.

Compared with `Clc1nc(N2CCCCC2)c2nc(Cl)nc(N3CCCCC3)c2n1`, `O=C(c1cc(-c2ccccc2)c2sccc2c1)N1CCCCC1` is lower in melting point: 240 to 241 °C for the first, 112 °C for the second.

Compared with `CC(=O)NCCCCC1Cc2ccccc2C1`, `CC(=O)NC1Cc2ccc(C(=O)CCCCCl)cc2C1` (configuration not stated) is higher in melting point: 83 to 84 °C for the first, 106 to 108 °C for the second.

First: COC/C(=N/O)c1ccc(Sc2cc(F)cc(C3(OC)CCOCC3)c2)cc1
Second: COC(=O)C1(NS(=O)(=O)c2ccc3c(Cl)cnc(Cl)c3c2)CCOCC1
The melting point of the first is lower: 155 °C for the first, 168 to 170 °C for the second.

First: Cc1cccc(-c2nc3ccccn3c2-c2ccnc(-c3ccc(OCc4cn(C)cn4)cc3)c2)n1
Second: c1ccc(-c2ccc(-c3nc(COc4ccc(CCCn5ccnc5)cc4)co3)o2)cc1
The melting point of the first is lower: 120 °C for the first, 130 to 131 °C for the second.

First: CCCCCCCCCCCCCCCCCCCCCCOc1ccc(C(=O)OCC)cc1
Second: CCCCCCCCCCCCCCCCNC(=O)c1cc(OCCBr)c2ccccc2c1O
The melting point of the first is lower: 56.5 to 59.5 °C for the first, 91 to 93 °C for the second.

First: CC(C)Oc1cc(-n2c(Cl)nc(C(F)(F)F)cc2=O)c(F)cc1Cl
Second: O=C1CN2C(=O)N(c3cc(Cl)nc(Cl)c3)C(=O)[C@@]2(Cc2ccc(OC(F)(F)F)cc2)C1
The melting point of the first is lower: 88 to 90 °C for the first, 166 °C for the second.

First: C[C@@H]1CN(CC(=O)Nc2ccccc2Cl)C[C@H](C)N1c1ncnc2sccc12
Second: COC(=O)c1ccc(Cl)cc1NC(=O)Cc1cccc(OC)c1
The melting point of the first is higher: 206 to 207 °C for the first, 144 to 146 °C for the second.

First: CNC(=O)N[C@H]1CC[C@H](CCN2CCN(c3ccc(OC)c(Cl)c3Cl)CC2)CC1
Second: O=c1ccc2ccc(OCCCCN3CCN(c4cccc5cc(Cl)ccc45)CC3)nc2[nH]1
The melting point of the first is higher: 237 to 241 °C for the first, 208 to 209 °C for the second.

Compared with `Nc1nc(Nc2ccc(S(N)(=O)=O)cc2)sc1C(=O)c1sc(Br)cc1Br`, `Cc1ccc(S(=O)(=O)CNc2nc(C)cc(C)n2)cc1` is lower in melting point: 254 to 255 °C for the first, 191 to 194 °C for the second.

Compared with `CCC(CC)Nc1nc(C)nc(N2CCc3cc(OC)cc(Cl)c32)c1C#N`, `CCOC(=O)Cc1sc(Sc2cc(C(=O)OC)nc3ccccc23)nc1C` is lower in melting point: 192 to 194 °C for the first, 94 to 95 °C for the second.

First: CC(C)c1ncc(O)cn1
Second: CC(C)COc1ccc(C(=O)NCC(=O)O)cc1
The melting point of the first is higher: 184 °C for the first, 140 to 142 °C for the second.

First: COC(=O)c1nc(-c2ccc(Cl)cc2F)cc(N)c1Br
Second: CCc1ccc2c(c1)cc(C(=O)O)n2CC(=O)OC
The melting point of the first is lower: 148 to 149 °C for the first, 181 °C for the second.

First: CCOP(=O)(OCC)N1CCN(c2cc3c(cc2F)c(=O)c(C(=O)O)cn3C2CC2)CC1
Second: CC1(C)CC(=O)Nc2c(CCN3CCN(c4nsc5ccc(F)cc45)CC3)cc(F)cc21
The melting point of the first is higher: 192 to 193 °C for the first, 191 °C for the second.

First: CC(C)OC(=O)N1CCC(c2nc3cc(-c4ccc(C(N)=O)cc4F)ccc3o2)CC1
Second: O=C(Nc1ccc(-n2nc(C(F)(F)F)cc2C2CC2)nc1)c1ccc2[nH]nnc2c1
The melting point of the first is lower: 194 to 197 °C for the first, 236 to 238 °C for the second.

First: CC(C)(C)C(NC(=O)Cc1ccc2cccnc2c1)NC(=NC#N)Nc1cccc2ncccc12 (configuration not stated)
Second: Cc1c(C(=O)NCc2ccc3c(Br)c(OCC#N)ccc3c2)oc2ccccc12
The melting point of the first is lower: 147 to 148 °C for the first, 194 to 197 °C for the second.

First: Nc1ncc(Cl)nc1Br
Second: Nc1ccc(Sc2cc(F)cc(F)c2)c(Cl)c1
The melting point of the first is lower: 102 to 105 °C for the first, 156 to 158 °C for the second.

First: COc1ccc(-c2coc3ccc(-c4nnc(SCc5ccc(OC)c(F)c5)o4)cc23)cc1
Second: COc1ccc(CCN2CCC(C(O)(c3cc4ccccc4s3)c3cc4ccccc4s3)CC2)cc1
The melting point of the first is lower: 162 to 163 °C for the first, 168 to 179 °C for the second.

Compared with `FC(F)(F)c1ccc2c(c1)ncn2-c1cccc(-n2ccnc2)c1`, `CC(c1ccc2[nH]c(-c3cccnc3)nc2c1)n1ccnc1` (configuration not stated) is higher in melting point: 177 to 180 °C for the first, 254 °C for the second.

First: NNC(=O)NCCSSc1ccccn1
Second: CC(=O)NOC(=O)Cc1cnc2ccccc2c1O
The melting point of the first is lower: 105 to 107 °C for the first, 224 to 225 °C for the second.

First: CCOC(=O)C1C(=O)N(C)C(=S)N(C)C1=O
Second: CCCCN1C(=O)CC(=O)N(C)c2ccccc21
The melting point of the first is lower: 90 to 93 °C for the first, 141 to 143 °C for the second.

First: CCCc1nn(-c2ccc(C(F)(F)F)cn2)cc1CCCCOc1ccc(CCC(=O)O)c(C)c1
Second: Cc1ccccc1C(CCC(=O)O)Oc1cc(OCc2ccsc2)ccc1C(=O)NC(Cc1ccccc1)C(=O)O (configuration not stated)
The melting point of the first is lower: 105 to 107 °C for the first, 178 to 180 °C for the second.

First: Cc1cn(C2(C(=O)N(C)C)CC2)nc1-c1ccccc1
Second: CC(=O)N(C)C(Cc1ccccc1N)c1ccc(C)s1 (configuration not stated)
The melting point of the first is lower: 52 to 55 °C for the first, 144 to 145 °C for the second.

Compared with `Cc1ccc(CC2(O)CCN(C(C)C(=O)Nc3ccc(O[Si](C)(C)C(C)(C)C)cc3)CC2)cc1` (racemic), `CCCCCCCN(Cc1ccc(C(C)(C)C)cc1)C(Nc1ccc(-c2ccccc2)cc1)=C1C(=O)COC1=O` is higher in melting point: 134 to 138 °C for the first, 190 to 192 °C for the second.

Compared with `O=c1[nH]c2ccc(C3CCC(NCCS(=O)c4ccccc4)CC3)cc2o1` (configuration not stated), `COc1ccc2[nH]c(C(=O)c3ccccc3)cc2c1` is higher in melting point: 107 to 110 °C for the first, 159 to 161 °C for the second.

First: CCc1c(C)[nH]c2c1C(=S)C1CNCCC1C2 (configuration not stated)
Second: CC(=O)OCC(=O)C1=CCC2C3CCC4=CC(=O)CCC4(C)C3=CCC12C (configuration not stated)
The melting point of the first is higher: 190 to 194 °C for the first, 128 to 129 °C for the second.

Compared with `N#Cc1ccc2[nH]cc(CCN3C(=O)c4ccccc4C3=O)c2c1`, `O=C(O)Cc1c(C(=O)c2cccc(Cl)c2)[nH]c2ccc(Cl)cc12` is higher in melting point: 217 to 221 °C for the first, 243 to 247 °C for the second.

First: Cc1c2c(cc3ccc(=O)oc13)C=CC(C)(C)O2
Second: C#CCOc1ccc2c(C)cc(=O)oc2c1C(=O)C=Cc1ccc(F)cc1
The melting point of the first is lower: 105 to 107 °C for the first, 185 to 186 °C for the second.

First: CC(=O)n1cc(Cl)c(-c2cccc3c2OC(F)(F)O3)n1
Second: CC(=O)c1[nH]c2cc(Cl)cc(Cl)c2c1C
The melting point of the first is lower: 131 °C for the first, 178 °C for the second.

First: NN1CCC[C@H]1C(=O)O
Second: NC1(CC(=O)O)CCCCC1
The melting point of the first is lower: 153 to 154 °C for the first, 200 to 204 °C for the second.

First: COC(=O)c1cc(S(=O)(=O)NC(=O)Nc2nc(C)cc(C)n2)c[nH]1
Second: CCOC(=O)c1cc(=O)n(Cc2ccc(S(=O)(=O)O)cc2S(=O)(=O)O)[nH]1
The melting point of the first is lower: 202 to 204 °C for the first, over 300 °C for the second.

First: COc1cc2cc(C#N)sc2cc1OC
Second: CCCc1ccc(OC)c(-c2csc(N)n2)c1
The melting point of the first is higher: 125 °C for the first, 84 °C for the second.

`CN(C)c1ccccc1CSc1nccc(=O)[nH]1` and `O=c1nc(-c2cccc(CCc3nnn[nH]3)n2)sc2ccccc12` cannot be ordered by melting point: 156 to 158 °C for the first, 157 °C for the second.

First: COc1ccc(C(=O)N2Cc3ccccc3CC2C(=O)O)cc1 (configuration not stated)
Second: COC(=O)C(C(=O)c1cn2c3c(cccc13)CCC2)c1cn(C(=O)OC(C)(C)C)c2ccccc12 (configuration not stated)
The melting point of the first is higher: 178 to 180 °C for the first, 86 to 91 °C for the second.

First: Cc1nc(NC2CC2)ccc1N1CCCn2c1nc1c(Cl)ccc(C(OC(F)F)C(F)(F)F)c12 (configuration not stated)
Second: Cc1cc(C)cc(NCc2ccc3nc(NC4CCN(CC(N)=O)CC4)n(Cc4nc(C)ccc4O)c3c2)c1
The melting point of the first is lower: 168 to 170 °C for the first, 206 °C for the second.

First: COC(=O)[C@]1(F)[C@@H]2[C@H]1C(=O)C[C@H]2O[Si](C)(C)C(C)(C)C
Second: CC1(C)NC(=O)N(CSc2cc(C(C)(C)C)c(O)c(C(C)(C)C)c2)C1=O
The melting point of the first is lower: 70 to 71 °C for the first, 160 to 162 °C for the second.

Compared with `CCOC(=O)/C=C/c1ccc2oc(Cc3nc(-c4ccccc4)oc3C)cc2c1`, `O=C(Nc1ccc(Oc2ccccc2)cc1)N1CCN(c2nnc(Cc3ccccc3)c3ccccc23)CC1` is lower in melting point: 150 to 151 °C for the first, 100 to 101 °C for the second.

`CN(C)c1ccc(NC(=O)N(C[C@H]2CC[C@H](CN(C(=O)Nc3ccc(N(C)C)cc3)C3CCCCC3)CC2)C2CCCCC2)cc1` and `CCCCCCCCNc1c(Nc2ccc(CC(C)NC[C@H](O)COc3cccc4[nH]c5ccccc5c34)cc2)c(=O)c1=O` (some centres not stated) cannot be ordered by melting point: 128 to 131 °C for the first, 125 to 131 °C for the second.

First: CC#CCN=C(NC#N)NCCSCc1[nH]cnc1C
Second: CCCCCCCCCCCc1ncc(C(=O)O)s1
The melting point of the first is higher: 128 to 130 °C for the first, 93 °C for the second.

First: C=CCSc1sc(-c2cc[nH]n2)c2c1C(=O)CC(C)(C)C2
Second: CCCCCCCCCCCCCSc1nnc(NC(=O)Nc2c(C(C)C)cccc2C(C)C)[nH]1
The melting point of the first is higher: 164 to 167 °C for the first, 131 to 135 °C for the second.

Work on `O=C(CN1CS(=O)CC1=O)N1CCN(C(c2ccccc2)c2ccccc2)CC1` (configuration not stated) yielded a melting point of 225 to 226 °C.
